What was measured:
[1] = test system: pollen beetle, Meligethes aeneus; assay: Discriminating dose bioassay: α-cypermethrin in mixture with synergist; type: in vivo; details: for % Mortality: 24 h
Description: Two pyrethroid resistant populations originating from two different areas in Poland ‘Rogalin'and lebork’ were collected in July 2008. A putative susceptible population, UK population, was also collected in July 2008 in Hertfordshire, UK. All populations were collected from oilseed rape contained adults only and were kept at room temperature before assays were performed.
Bioassays incorporating the compounds (Compound of Example 2 and Compound of Example 3) dissolved in acetone, were carried out using a diagnostic concentration of α-cypermethrin derived from the above full dose response bioassays in a mixture of 0.01 g L^−1 of the compounds. The concentration of α-cypermethrin used for the discriminating dose bioassays was 0.3 ppm α-cypermethrin for the two polish populations, Rogalin and Lebork and 0.03 ppm α-cypermethrin for UK population. Vials treated with the compounds only, dissolved in acetone and acetone only were used as controls. Ten to 15 replicates were used for each treatment depending on insect numbers within the population. Compounds concentrations chosen conferred no mortality in preliminary bioassays.
Treated vials including the pollen beetles were stored in constant environment facilities at 18±2° C. and 16L: 8D. All bioassays were scored at an endpoint of 24 h after exposure to the insecticide. Insects incapable of coordinated movement (after gentle touching with a pencil brush if necessary) were scored as dead.

[2] = test system: P450 enzymes (oxidases) of pollen beetle homogenate; assay: Oxidase assay: 7-ethoxycoumarin O-deethylation inhibition in pollen beetle homogenate; type: biochemical, Meligethes aeneus; details: 3 μl of 10 mM compound, enzyme plus acetone = 100
Description: The ability of the novel compositions comprising the synergists of Formula (I) to inhibit P450 enzymes, a major mechanism conferring resistance to xenobiotics, was measured using pollen beetle homogenate.
Approximately 50 non-sexed adult pollen beetle from each population were homogenised on ice in 1 ml 0.1 M sodium phosphate buffer, pH 7.6, containing, 1 mM EDTA, 1 mM DTT, 1 mM PTU, 1 mM PMSF and centrifuged at 10 000×g for 10 min. The resulting supernatant was used as the enzyme source.
The O-deethylation inhibition by compounds of Example 2 or 3 was measured using 7-ethoxycoumarin (7-EC) according to Ullrich and Weber (Ullrich V and Weber P, The O-dealkylation of 7-ethoxycoumarin by liver microsomes. Z Physiol Chem 353: 1171-1177 (1972)) and adapted to the microplate format as described by DeSousa (De Sousa G, Cuany A, Brun A, Amichot M, Rahmani R, Berge J B, A microfluorometric method for measuring ethoxycoumarin-O-deethylase activity on individual Drosophila melanogaster abdomens: interest for screening resistance in insect populations Analyt. Biochem 229: 86-91 (1995)). Briefly, 7-EC was dissolved in ethanol to make a 20 mM stock solution and diluted by the addition of 0.1 M, pH 7.8 sodium phosphate buffer to give a concentration of 0.5 mM. Fifty microliters of pollen beetle enzyme were added to separate wells of a microplate, followed by the addition of 3 μl 10 mM of either compounds of Example 2 or 3 or acetone only. After 10 min incubation in room temperature, 80 μl 0.5 mM 7-EC was added following by another 5 min at 30° C. The reaction initiated by the addition of 10 μl 9.6 mM NADPH in 0.1 M sodium phosphate, pH 7.8. Enzyme activity was measured in a Victor^2 1420 multilabel counter (Wallac, Milton Keynes, UK) for 60 min with readings taken every 5 min, using an excitation wavelength of 370 nm and an emission wavelength of 460 nm. All assays were performed in triplicate.
The ability of the composition comprising the compounds of Examples 2 and 3 to inhibit oxidases derived from the 3 different pollen beetle populations is presented in Table 7.

Myzus persicae = assay: Topical application bioassay on aphid clones: imidacloprid with or without synergist pre-treatment; details: aphid clone 5191A
Description: Aphid clones were reared on Chinese cabbage (Brassica rapa L. var. Pekinensis c.v Wong Bok) (Brassicaceae) leaves held in small plastic box-cages maintained at 18±2° C. with a 16:8 h light:dark photoperiod (Blackman R L, Variation in the photoperiodic response within natural populations of Myzus persicae (Sulzer). Bull Ent Res 60: 533-546 (1971)).
Clone 4106A is a laboratory insecticide-susceptible standard2 . […] Both aphid clones have been established from single parthenogenetic M. persicae females (Foster S P, Denholm I, Thompson R, Poppy G M, Powell W, Reduced response of insecticide-resistant aphids and attraction of parasitoids to alarm pheromone; a potential fitness trade-off. Bull Ent Res 95: 37-46 (2005)).
12.1.2 Topical Application Bioassay with 5191A Aphid Clone Young apterae were transferred to the abaxial surface of Chinese cabbage leaf discs (10 adults per leaf disc, at least 3 replicates per concentration) held on 1% agar in plastic containers (4 cm in diameter). The upper edge of each container was coated with Fluon (Whitford Plastics, UK) to prevent subsequent aphid escape from the leaf surface. After allowing 2 h for the aphids to settle, each was dosed with 0.25 μl of either 1 g L^−1 Compound of Example 3 dissolved in acetone or acetone only. After 4 h aphids were further treated with 0.25 μl imidacloprid in acetone (96% AR) using a
Burkard microapplicator (Burkard, Rickmansworth, UK). Controls were treated with acetone only. Treated aphids were stored at 18±2° C. and 16 h light: 8 h dark photoperiod. All bioassays were scored at the endpoint of 72 h after treatment. Adults incapable of co-ordinated movement (after gentle touching with a paint brush if necessary) were scored as dead. All bioassays were completed in triplicate.

CC#CCOc1cc2c(cc1CCC)OCO2 [Example 3, 5-(but-2-ynyloxy)-6-propyl-benzo[1.3]dioxole]
% Mortality ([1]; Lebork, 0.3 ppm α-cypermethrin in mixture with 0.01 g L^−1 synergist): 86.53%
Mortality ([1]; Rogalin and Lebork, 0.3 ppm α-cypermethrin in mixture with 0.01 g L^−1 synergist): around 85%
% Mortality ([1]; Rogalin, 0.3 ppm α-cypermethrin in mixture with 0.01 g L^−1 synergist): 97.06%
% Mortality ([1]; UK population, 0.03 ppm α-cypermethrin in mixture with 0.01 g L^−1 synergist): 68.78%
Mortality with the compound only ([1]; synergist only, without α-cypermethrin (data not shown)): No mortality
Inhibition of 7-ethoxycoumarin O-deethylation (%) ([2]; Lebork homogenate): −2.24%
Inhibition of 7-ethoxycoumarin O-deethylation (%) ([2]; Rogalin homogenate): 27.6%
Inhibition of 7-ethoxycoumarin O-deethylation (%) ([2]; UK population homogenate): 10.4%
LC50 of imidacloprid after pre-treatment with the synergist (Myzus persicae; FE4(R3), 0.25 μl of 1 g L^−1 synergist 4 h before imidacloprid, scored 72 h): 1.25 ppm
SF, synergism factor (LC50 unsynergised / LC50 synergised) (Myzus persicae; imidacloprid plus 1 g L^−1 synergist pre-treatment): 72.4
